Test results reported in ChEMBL document CHEMBL5291721, “A preclinical secondary pharmacology resource illuminates target-adverse drug reaction associations of marketed drugs” (Nat Commun, 2023).

What was measured:
[1] = molecular target: Voltage-gated inwardly rectifying potassium channel KCNH2 (Homo sapiens, UniProt Q12809); format: functional; settings: read-out: AC50
B2 bradykinin receptor = molecular target: T1, B2 bradykinin receptor (Homo sapiens, UniProt P30411)
T1 sequence (P30411 whole entry): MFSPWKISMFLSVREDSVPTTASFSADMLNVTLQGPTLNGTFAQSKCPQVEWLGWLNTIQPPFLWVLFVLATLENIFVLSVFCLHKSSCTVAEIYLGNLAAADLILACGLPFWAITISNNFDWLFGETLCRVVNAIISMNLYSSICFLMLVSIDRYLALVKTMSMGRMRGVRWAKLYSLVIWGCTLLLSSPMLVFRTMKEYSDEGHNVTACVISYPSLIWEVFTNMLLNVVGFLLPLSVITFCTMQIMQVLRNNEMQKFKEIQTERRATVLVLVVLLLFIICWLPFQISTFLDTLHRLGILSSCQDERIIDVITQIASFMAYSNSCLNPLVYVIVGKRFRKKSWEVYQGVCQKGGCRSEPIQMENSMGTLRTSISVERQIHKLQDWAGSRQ

Histamine H2 receptor = Histamine H2 receptor (Homo sapiens, UniProt P25021); format: functional, cell-based
[2] = molecular target: Growth hormone secretagogue receptor type 1 (Homo sapiens, UniProt Q92847)
[3] = molecular target: Kappa-type opioid receptor (Homo sapiens, UniProt P41145)
[4] = molecular target: T2, Alpha-1A adrenergic receptor (Homo sapiens, UniProt P35348); format: functional, cell-based
T2 sequence (P35348 whole entry): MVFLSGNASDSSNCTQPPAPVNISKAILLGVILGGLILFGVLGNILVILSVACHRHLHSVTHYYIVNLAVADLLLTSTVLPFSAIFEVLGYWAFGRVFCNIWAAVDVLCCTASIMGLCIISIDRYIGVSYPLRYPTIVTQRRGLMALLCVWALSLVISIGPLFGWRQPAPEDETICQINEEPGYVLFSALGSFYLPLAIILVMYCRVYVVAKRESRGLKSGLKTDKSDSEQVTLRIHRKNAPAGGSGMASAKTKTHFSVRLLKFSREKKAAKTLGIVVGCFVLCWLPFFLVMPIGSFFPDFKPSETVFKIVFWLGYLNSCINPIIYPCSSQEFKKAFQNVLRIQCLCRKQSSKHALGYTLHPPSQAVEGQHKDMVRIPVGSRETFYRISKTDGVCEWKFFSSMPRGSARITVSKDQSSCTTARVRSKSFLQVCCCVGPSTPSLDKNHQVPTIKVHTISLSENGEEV

[5] = molecular target: T3, 5-hydroxytryptamine receptor 1A (Homo sapiens, UniProt P08908); format: functional, cell-based
T3 sequence (P08908 whole entry): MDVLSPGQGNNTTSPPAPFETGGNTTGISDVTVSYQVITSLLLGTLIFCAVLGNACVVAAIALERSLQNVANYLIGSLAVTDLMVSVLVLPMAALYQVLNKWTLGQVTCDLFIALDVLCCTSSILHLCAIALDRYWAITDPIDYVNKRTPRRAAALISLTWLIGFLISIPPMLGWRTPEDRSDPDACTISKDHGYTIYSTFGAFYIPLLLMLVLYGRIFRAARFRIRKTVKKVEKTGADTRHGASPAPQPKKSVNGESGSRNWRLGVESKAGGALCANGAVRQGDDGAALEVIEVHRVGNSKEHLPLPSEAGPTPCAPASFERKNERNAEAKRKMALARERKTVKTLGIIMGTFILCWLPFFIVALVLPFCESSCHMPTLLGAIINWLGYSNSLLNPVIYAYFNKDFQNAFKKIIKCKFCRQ

[6] = molecular target: T4, Muscarinic acetylcholine receptor M1 (Homo sapiens, UniProt P11229); format: functional
T4 sequence (P11229 whole entry): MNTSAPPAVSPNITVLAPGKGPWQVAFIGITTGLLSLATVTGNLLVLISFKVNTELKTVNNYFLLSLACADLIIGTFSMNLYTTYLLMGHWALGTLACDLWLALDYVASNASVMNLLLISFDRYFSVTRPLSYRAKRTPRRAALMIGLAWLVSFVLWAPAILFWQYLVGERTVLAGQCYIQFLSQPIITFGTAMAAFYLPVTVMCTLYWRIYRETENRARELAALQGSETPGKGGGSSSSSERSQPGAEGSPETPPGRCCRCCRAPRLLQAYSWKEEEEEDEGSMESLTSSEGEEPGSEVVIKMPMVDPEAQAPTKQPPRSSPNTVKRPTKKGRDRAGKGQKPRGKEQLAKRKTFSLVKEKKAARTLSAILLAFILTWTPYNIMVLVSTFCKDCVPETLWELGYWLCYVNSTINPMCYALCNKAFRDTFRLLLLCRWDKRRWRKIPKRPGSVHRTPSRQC

[7] = molecular target: cGMP-inhibited 3',5'-cyclic phosphodiesterase 3A (Homo sapiens, UniProt Q14432); format: functional
[8] = molecular target: T5, Amine oxidase [flavin-containing] A (Homo sapiens, UniProt P21397); format: functional
T5 sequence (P21397 whole entry): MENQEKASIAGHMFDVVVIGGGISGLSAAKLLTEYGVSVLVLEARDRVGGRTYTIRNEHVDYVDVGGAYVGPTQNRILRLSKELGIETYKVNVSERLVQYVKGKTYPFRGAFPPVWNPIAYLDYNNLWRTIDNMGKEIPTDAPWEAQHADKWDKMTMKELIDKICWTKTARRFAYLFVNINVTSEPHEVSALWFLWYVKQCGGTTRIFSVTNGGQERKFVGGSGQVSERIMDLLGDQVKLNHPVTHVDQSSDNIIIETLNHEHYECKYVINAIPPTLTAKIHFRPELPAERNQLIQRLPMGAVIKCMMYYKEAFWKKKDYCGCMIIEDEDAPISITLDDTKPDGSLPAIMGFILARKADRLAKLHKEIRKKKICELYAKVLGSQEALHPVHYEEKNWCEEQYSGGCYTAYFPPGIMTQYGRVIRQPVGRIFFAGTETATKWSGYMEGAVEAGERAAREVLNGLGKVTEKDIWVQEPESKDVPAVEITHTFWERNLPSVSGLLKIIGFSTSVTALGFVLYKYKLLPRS
Further: assay procedure not described here.

Sequence of Histamine H2 receptor (P25021 whole entry): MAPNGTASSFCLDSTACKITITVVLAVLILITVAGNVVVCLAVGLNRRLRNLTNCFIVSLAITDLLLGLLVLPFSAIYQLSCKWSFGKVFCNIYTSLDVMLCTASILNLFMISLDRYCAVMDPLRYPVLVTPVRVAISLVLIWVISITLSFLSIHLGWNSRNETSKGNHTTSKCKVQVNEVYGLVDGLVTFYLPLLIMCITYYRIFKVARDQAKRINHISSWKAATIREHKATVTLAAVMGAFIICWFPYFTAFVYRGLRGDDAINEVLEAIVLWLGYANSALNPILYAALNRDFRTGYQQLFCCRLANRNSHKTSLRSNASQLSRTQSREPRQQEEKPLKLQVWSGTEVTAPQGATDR
Sequence of Growth hormone secretagogue receptor type 1 (Q92847 whole entry): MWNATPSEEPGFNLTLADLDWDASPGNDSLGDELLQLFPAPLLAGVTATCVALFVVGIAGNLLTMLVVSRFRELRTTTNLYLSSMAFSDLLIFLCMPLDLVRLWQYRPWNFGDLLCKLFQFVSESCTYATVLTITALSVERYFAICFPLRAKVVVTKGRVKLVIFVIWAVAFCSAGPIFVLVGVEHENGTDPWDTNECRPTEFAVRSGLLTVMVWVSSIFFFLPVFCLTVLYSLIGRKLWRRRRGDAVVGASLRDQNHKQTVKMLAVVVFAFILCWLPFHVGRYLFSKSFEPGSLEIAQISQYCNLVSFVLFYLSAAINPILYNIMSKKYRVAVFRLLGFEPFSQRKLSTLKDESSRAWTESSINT
Sequence of Kappa-type opioid receptor (P41145 whole entry): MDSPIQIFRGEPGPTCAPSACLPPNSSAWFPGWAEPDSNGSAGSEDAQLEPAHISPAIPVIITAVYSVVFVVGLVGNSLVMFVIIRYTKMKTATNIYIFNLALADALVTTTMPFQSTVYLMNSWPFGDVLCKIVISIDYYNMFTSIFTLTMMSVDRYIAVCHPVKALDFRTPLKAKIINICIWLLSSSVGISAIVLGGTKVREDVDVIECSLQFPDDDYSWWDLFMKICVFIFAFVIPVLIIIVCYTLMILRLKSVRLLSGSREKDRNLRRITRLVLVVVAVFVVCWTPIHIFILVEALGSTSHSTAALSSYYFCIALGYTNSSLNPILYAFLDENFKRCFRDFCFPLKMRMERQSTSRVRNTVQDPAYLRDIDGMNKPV
Sequence of cGMP-inhibited 3',5'-cyclic phosphodiesterase 3A (Q14432 whole entry): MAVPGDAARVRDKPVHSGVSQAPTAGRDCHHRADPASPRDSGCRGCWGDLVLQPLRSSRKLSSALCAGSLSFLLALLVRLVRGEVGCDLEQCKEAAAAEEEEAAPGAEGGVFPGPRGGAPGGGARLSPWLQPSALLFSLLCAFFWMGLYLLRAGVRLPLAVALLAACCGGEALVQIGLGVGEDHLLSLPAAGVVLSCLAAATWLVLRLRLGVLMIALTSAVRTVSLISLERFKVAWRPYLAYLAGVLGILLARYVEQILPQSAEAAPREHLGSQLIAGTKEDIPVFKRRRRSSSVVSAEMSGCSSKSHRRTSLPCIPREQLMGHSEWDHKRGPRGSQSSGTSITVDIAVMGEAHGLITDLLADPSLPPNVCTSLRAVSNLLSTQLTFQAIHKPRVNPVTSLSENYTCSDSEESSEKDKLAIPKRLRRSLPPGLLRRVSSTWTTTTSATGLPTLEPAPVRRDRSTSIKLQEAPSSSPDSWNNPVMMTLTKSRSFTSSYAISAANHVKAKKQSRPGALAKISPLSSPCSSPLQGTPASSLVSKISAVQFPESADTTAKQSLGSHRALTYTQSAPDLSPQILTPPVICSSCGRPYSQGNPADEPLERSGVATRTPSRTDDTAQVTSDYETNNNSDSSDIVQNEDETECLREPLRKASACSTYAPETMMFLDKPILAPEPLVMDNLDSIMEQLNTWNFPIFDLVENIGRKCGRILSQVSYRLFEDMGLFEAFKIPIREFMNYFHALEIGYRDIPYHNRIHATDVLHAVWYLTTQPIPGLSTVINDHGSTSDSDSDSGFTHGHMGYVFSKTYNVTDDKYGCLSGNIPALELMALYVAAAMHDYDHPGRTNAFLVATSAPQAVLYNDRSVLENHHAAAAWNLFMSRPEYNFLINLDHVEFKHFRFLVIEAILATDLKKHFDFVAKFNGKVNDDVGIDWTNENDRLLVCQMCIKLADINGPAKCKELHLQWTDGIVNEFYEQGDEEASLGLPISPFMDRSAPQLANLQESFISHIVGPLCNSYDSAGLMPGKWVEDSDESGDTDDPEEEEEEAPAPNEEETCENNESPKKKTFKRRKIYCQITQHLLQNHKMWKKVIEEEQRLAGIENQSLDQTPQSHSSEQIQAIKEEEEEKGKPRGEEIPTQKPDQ
Sequence of Voltage-gated inwardly rectifying potassium channel KCNH2 (Q12809 whole entry): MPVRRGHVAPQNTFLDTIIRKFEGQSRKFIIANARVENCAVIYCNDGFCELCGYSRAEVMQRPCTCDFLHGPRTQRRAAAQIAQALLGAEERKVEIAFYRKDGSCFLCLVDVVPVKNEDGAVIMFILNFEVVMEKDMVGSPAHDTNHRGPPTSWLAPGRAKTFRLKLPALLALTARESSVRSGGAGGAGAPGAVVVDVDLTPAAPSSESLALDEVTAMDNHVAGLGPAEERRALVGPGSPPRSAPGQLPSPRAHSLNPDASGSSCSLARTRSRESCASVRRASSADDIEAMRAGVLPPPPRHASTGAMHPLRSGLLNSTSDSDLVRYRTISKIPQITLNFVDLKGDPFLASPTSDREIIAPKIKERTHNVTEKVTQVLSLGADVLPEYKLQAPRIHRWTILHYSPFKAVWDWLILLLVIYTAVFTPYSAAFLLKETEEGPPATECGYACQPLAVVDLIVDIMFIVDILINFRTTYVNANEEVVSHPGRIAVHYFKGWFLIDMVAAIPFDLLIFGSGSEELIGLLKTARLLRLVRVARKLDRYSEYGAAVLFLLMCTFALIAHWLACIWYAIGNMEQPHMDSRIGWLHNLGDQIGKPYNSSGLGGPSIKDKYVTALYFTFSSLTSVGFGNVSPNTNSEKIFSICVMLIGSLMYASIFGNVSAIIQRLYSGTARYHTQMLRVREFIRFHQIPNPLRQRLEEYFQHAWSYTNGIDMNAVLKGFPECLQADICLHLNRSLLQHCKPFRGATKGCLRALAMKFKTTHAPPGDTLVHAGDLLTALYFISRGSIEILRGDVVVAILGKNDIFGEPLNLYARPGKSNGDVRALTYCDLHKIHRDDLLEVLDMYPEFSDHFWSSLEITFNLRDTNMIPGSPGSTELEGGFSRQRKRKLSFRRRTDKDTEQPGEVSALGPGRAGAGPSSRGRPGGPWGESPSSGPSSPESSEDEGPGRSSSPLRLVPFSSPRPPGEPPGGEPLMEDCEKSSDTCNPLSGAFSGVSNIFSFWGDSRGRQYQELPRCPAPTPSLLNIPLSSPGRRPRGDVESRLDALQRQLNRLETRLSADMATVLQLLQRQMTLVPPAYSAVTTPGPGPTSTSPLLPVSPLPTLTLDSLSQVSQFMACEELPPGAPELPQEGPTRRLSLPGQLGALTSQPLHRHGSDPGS

Structure (SMILES)	AC50 [1] [µM]	AC50 (B2 bradykinin receptor) [µM]	AC50 (Histamine H2 receptor) [µM]	AC50 [2] [µM]	AC50 [3] [µM]	AC50 [4] [µM]	AC50 [5] [µM]	AC50 [6] [µM]	AC50 [7] [µM]	AC50 [8] [µM]
CN1CC(=O)N2[C@H](c3ccc4c(c3)OCO4)c3[nH]c4ccccc4c3C[C@@H]2C1=O	> 30	> 30	> 10	> 30	> 10	> 30	> 10	> 10	> 30	> 10
O=C(C[S+]([O-])C(c1ccccc1)c1ccccc1)NO (configuration not stated)	> 30	> 30	> 30	> 30	> 30	> 30	> 30	> 30	> 10	> 30
C=C1CC[C@@]2(O)[C@H]3Cc4ccc(O)c5c4[C@@]2(CCN3CC2CC2)[C@H]1O5	28	> 30	> 30	> 30	–	> 30	> 30	> 30	> 30	> 30
COc1ccc2cccc(CCNC(C)=O)c2c1 [AGOMELATINE]	> 30	> 30	> 30	> 30	> 10	> 30	> 10	> 10	> 30	> 10
NC(CO)C(=O)NNCc1ccc(O)c(O)c1O (configuration not stated) [BENSERAZIDE]	> 30	> 30	> 10	> 30	> 10	> 30	> 10	> 10	> 30	> 10
CCC(C(=O)O)c1ccc(CC(C)C)cc1 (configuration not stated) [BUTIBUFEN]	> 30	> 30	> 30	> 30	> 30	> 30	> 30	> 30	> 30	> 30
CN(C)C(=O)OC1N=C(c2ccccc2)c2cc(Cl)ccc2N(C)C1=O (configuration not stated) [CAMAZEPAM]	> 30	> 30	> 10	> 30	> 10	> 30	> 10	> 10	> 30	> 10
CCCCCOC(=O)Nc1nc(=O)n([C@@H]2O[C@H](C)[C@@H](O)[C@H]2O)cc1F [CAPECITABINE]	> 30	> 30	> 30	> 30	> 30	> 30	> 30	> 30	> 30	> 30
CC(C)C(=O)OCC(=O)[C@@]12O[C@H](C3CCCCC3)O[C@@H]1C[C@H]1[C@@H]3CCC4=CC(=O)C=C[C@]4(C)[C@H]3[C@@H](O)C[C@@]12C [CICLESONIDE]	> 30	> 10	> 10	> 10	9.72	> 30	> 10	> 10	> 30	> 10
CCCCOc1cc(C(=O)NCCN(CC)CC)c2ccccc2n1 [DIBUCAINE]	1.42	> 30	> 10	15.8	7.36	> 30	> 10	> 10	> 30	> 10
CN[C@@H](C)[C@H](O)c1ccccc1 [EPHEDRINE]	> 30	> 30	> 10	> 30	> 10	13	> 10	> 10	> 30	> 10
O=C1CN=C(c2ccccc2)c2cc(Cl)ccc2N1CC(F)(F)F [HALAZEPAM]	> 30	> 30	> 30	> 30	20	> 30	> 30	> 30	> 30	> 30
CCCCCN(C)CCC(O)(P(=O)(O)O)P(=O)(O)O [IBANDRONIC ACID]	> 30	> 30	> 30	> 30	> 30	> 30	> 10	> 30	1.9	> 30
C1=Cc2cccc(OCC3CNCCO3)c2C1 (configuration not stated) [INDELOXAZINE]	> 30	> 30	> 30	> 30	25	> 30	> 30	> 30	> 30	> 30
COC(=O)C1=C(C)NC(C)=C(C(=O)OC(C)C)C1c1cccc2nonc12 (configuration not stated) [ISRADIPINE]	> 30	> 30	> 30	> 30	10.7	> 30	> 10	> 30	23	> 30
C#C[C@]1(O)CC[C@H]2[C@@H]3CCC4=CCCC[C@@H]4[C@H]3CC[C@@]21C [LYNESTRENOL]	> 30	> 30	> 30	> 30	1.5	> 30	> 30	> 30	> 30	0.3
O=C(O)CCCc1ccccc1 [PHENYLBUTANOIC ACID]	> 30	> 30	–	> 10	> 30	> 30	> 10	> 30	> 30	> 30
CC(=O)NS(=O)(=O)c1ccc(N)cc1 [SULFACETAMIDE]	> 30	> 10	> 10	> 10	> 10	–	> 10	> 10	> 30	> 10
